Source: PubChem BioAssay (NCI)
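Briefly, cells in 96-well plates were exposed to five compound concentrations for 48 h, and endpoints were estimated by linear interpolation. GI50 marks 50% less growth. At the TGI there is no net growth.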

What was measured:
Experiment in all cases: DTP human tumour cell line panel, 48 h
HCT-15 colon = test system: HCT-15 colon
T-47D breast = test system: T-47D breast
A498 renal = test system: A498 renal
OVCAR-4 ovarian = test system: OVCAR-4 ovarian
HT29 colon = test system: HT29 colon
NCI-H522 lung = test system: NCI-H522 lung
HCC-2998 colon = test system: HCC-2998 colon
DU-145 prostate = test system: DU-145 prostate
U251 CNS = test system: U251 CNS
UACC-257 melanoma = test system: UACC-257 melanoma
HS 578T breast = test system: HS 578T breast
SK-MEL-28 melanoma = test system: SK-MEL-28 melanoma
UACC-62 melanoma = test system: UACC-62 melanoma
SK-MEL-5 melanoma = test system: SK-MEL-5 melanoma
MDA-MB-435 = test system: MDA-MB-435
SF-295 CNS = test system: SF-295 CNS
SF-268 CNS = test system: SF-268 CNS
UO-31 renal = test system: UO-31 renal
HCT-116 colon = test system: HCT-116 colon
NCI-H460 lung = test system: NCI-H460 lung
SN12C renal = test system: SN12C renal
SW-620 colon = test system: SW-620 colon
HOP-62 NSCLC = test system: HOP-62 NSCLC
TK-10 renal = test system: TK-10 renal
SK-MEL-2 melanoma = test system: SK-MEL-2 melanoma
RPMI-8226 leukemia = test system: RPMI-8226 leukemia
SR leukemia = test system: SR leukemia
COLO 205 colon = test system: COLO 205 colon
OVCAR-8 ovarian = test system: OVCAR-8 ovarian
K-562 leukemia = test system: K-562 leukemia
BT-549 breast = test system: BT-549 breast
RXF 393 renal = test system: RXF 393 renal
NCI-H23 lung = test system: NCI-H23 lung
NCI/ADR-RES ovarian = test system: NCI/ADR-RES ovarian
SNB-75 CNS = test system: SNB-75 CNS
MCF7 breast = test system: MCF7 breast
OVCAR-3 ovarian = test system: OVCAR-3 ovarian
CAKI-1 renal = test system: CAKI-1 renal
786-0 renal = test system: 786-0 renal
EKVX NSCLC = test system: EKVX NSCLC
HOP-92 NSCLC = test system: HOP-92 NSCLC
MDA-MB-231 breast = test system: MDA-MB-231 breast
A549 NSCLC = test system: A549 NSCLC
ACHN renal = test system: ACHN renal
SK-OV-3 ovarian = test system: SK-OV-3 ovarian
MDA-MB-468 breast = test system: MDA-MB-468 breast
IGROV1 ovarian = test system: IGROV1 ovarian
MOLT-4 leukemia = test system: MOLT-4 leukemia
M14 melanoma = test system: M14 melanoma
SNB-19 CNS = test system: SNB-19 CNS
KM12 colon = test system: KM12 colon
MALME-3M melanoma = test system: MALME-3M melanoma
HL-60(TB) leukemia = test system: HL-60(TB) leukemia
NCI-H226 lung = test system: NCI-H226 lung
LOX IMVI melanoma = test system: LOX IMVI melanoma
OVCAR-5 ovarian = test system: OVCAR-5 ovarian
SF-539 CNS = test system: SF-539 CNS
PC-3 prostate = test system: PC-3 prostate

CN1CCN(c2ccc(Nc3nc(NCCNC(=O)c4ccc(C(F)(F)F)cc4)c4sccc4n3)cc2)CC1
GI50 (HCT-15 colon): 3.33 µM
TGI (HCT-15 colon): 13.9 µM
GI50 (T-47D breast): 10.8 µM
TGI (T-47D breast): 31.1 µM
GI50 (A498 renal): 17.1 µM
TGI (A498 renal): 31 µM
GI50 (OVCAR-4 ovarian): 13.6 µM
TGI (OVCAR-4 ovarian): 48.1 µM
GI50 (HT29 colon): 3.53 µM
TGI (HT29 colon): 12.6 µM
GI50 (NCI-H522 lung): 4.21 µM
TGI (NCI-H522 lung): 16.7 µM
GI50 (HCC-2998 colon): 4.55 µM
TGI (HCC-2998 colon): 15.5 µM
GI50 (DU-145 prostate): 14.2 µM
TGI (DU-145 prostate): 27.9 µM
GI50 (U251 CNS): 3.54 µM
TGI (U251 CNS): 13.8 µM
GI50 (UACC-257 melanoma): 1.75 µM
TGI (UACC-257 melanoma): 3.39 µM
GI50 (HS 578T breast): 4.19 µM
TGI (HS 578T breast): 23.2 µM
GI50 (SK-MEL-28 melanoma): 2.13 µM
TGI (SK-MEL-28 melanoma): 3.99 µM
GI50 (UACC-62 melanoma): 2.01 µM
TGI (UACC-62 melanoma): 4.79 µM
GI50 (SK-MEL-5 melanoma): 2.3 µM
TGI (SK-MEL-5 melanoma): 5.99 µM
GI50 (MDA-MB-435): 3.5 µM
TGI (MDA-MB-435): 11 µM
GI50 (SF-295 CNS): 3.52 µM
TGI (SF-295 CNS): 13.6 µM
GI50 (SF-268 CNS): 11.1 µM
TGI (SF-268 CNS): 31.4 µM
GI50 (UO-31 renal): 11.8 µM
TGI (UO-31 renal): 24.1 µM
GI50 (HCT-116 colon): 4.25 µM
TGI (HCT-116 colon): 15.2 µM
GI50 (NCI-H460 lung): 13.3 µM
TGI (NCI-H460 lung): 28.7 µM
GI50 (SN12C renal): 12.9 µM
TGI (SN12C renal): 25.7 µM
GI50 (SW-620 colon): 12.7 µM
TGI (SW-620 colon): 26.4 µM
GI50 (HOP-62 NSCLC): 15.1 µM
TGI (HOP-62 NSCLC): 30.7 µM
GI50 (TK-10 renal): 16.6 µM
TGI (TK-10 renal): 30.8 µM
GI50 (SK-MEL-2 melanoma): 15.7 µM
TGI (SK-MEL-2 melanoma): 29.7 µM
GI50 (RPMI-8226 leukemia): 1.88 µM
TGI (RPMI-8226 leukemia): 4.54 µM
GI50 (SR leukemia): 1.9 µM
TGI (SR leukemia): 5.21 µM
GI50 (COLO 205 colon): 7.4 µM
TGI (COLO 205 colon): 22.6 µM
GI50 (OVCAR-8 ovarian): 10.8 µM
TGI (OVCAR-8 ovarian): 28 µM
GI50 (K-562 leukemia): 2.24 µM
TGI (K-562 leukemia): 8.8 µM
GI50 (BT-549 breast): 12.3 µM
TGI (BT-549 breast): 25.1 µM
GI50 (RXF 393 renal): 2.67 µM
TGI (RXF 393 renal): 10.3 µM
GI50 (NCI-H23 lung): 14.6 µM
TGI (NCI-H23 lung): 29.6 µM
GI50 (NCI/ADR-RES ovarian): 16.1 µM
TGI (NCI/ADR-RES ovarian): 39.5 µM
GI50 (SNB-75 CNS): 6.55 µM
TGI (SNB-75 CNS): 20.7 µM
GI50 (MCF7 breast): 4.06 µM
TGI (MCF7 breast): 15.7 µM
GI50 (OVCAR-3 ovarian): 14.4 µM
TGI (OVCAR-3 ovarian): 32 µM
GI50 (CAKI-1 renal): 9.24 µM
TGI (CAKI-1 renal): 21.7 µM
GI50 (786-0 renal): 3.24 µM
TGI (786-0 renal): 13.1 µM
GI50 (EKVX NSCLC): 13.9 µM
TGI (EKVX NSCLC): 29.2 µM
GI50 (HOP-92 NSCLC): 4.66 µM
TGI (HOP-92 NSCLC): 18.9 µM
GI50 (MDA-MB-231 breast): 3.72 µM
TGI (MDA-MB-231 breast): 14.4 µM
GI50 (A549 NSCLC): 11.7 µM
TGI (A549 NSCLC): 30.8 µM
GI50 (ACHN renal): 13.4 µM
TGI (ACHN renal): 27.9 µM
GI50 (SK-OV-3 ovarian): 17.3 µM
TGI (SK-OV-3 ovarian): 33.4 µM
GI50 (MDA-MB-468 breast): 2.26 µM
TGI (MDA-MB-468 breast): 9.44 µM
GI50 (IGROV1 ovarian): 12.9 µM
TGI (IGROV1 ovarian): 26 µM
GI50 (MOLT-4 leukemia): 3.64 µM
TGI (MOLT-4 leukemia): 16.5 µM
GI50 (M14 melanoma): 1.88 µM
TGI (M14 melanoma): 3.63 µM
GI50 (SNB-19 CNS): 14.2 µM
TGI (SNB-19 CNS): 27.5 µM
GI50 (KM12 colon): 14 µM
TGI (KM12 colon): 30.8 µM
GI50 (MALME-3M melanoma): 1.77 µM
TGI (MALME-3M melanoma): 3.16 µM
GI50 (HL-60(TB) leukemia): 3.49 µM
TGI (HL-60(TB) leukemia): 15.8 µM
GI50 (NCI-H226 lung): 14 µM
TGI (NCI-H226 lung): 29.8 µM
GI50 (LOX IMVI melanoma): 2.66 µM
TGI (LOX IMVI melanoma): 8.84 µM
GI50 (OVCAR-5 ovarian): 15.1 µM
TGI (OVCAR-5 ovarian): 30.5 µM
GI50 (SF-539 CNS): 2.12 µM
TGI (SF-539 CNS): 4.6 µM
GI50 (PC-3 prostate): 10.4 µM
TGI (PC-3 prostate): 26.9 µM
